The EC50 is the concentration at which the effect is half-maximal.

From patent US20170210751A1, “PRMT5 INHIBITORS AND USES THEREOF” (Epizyme, Inc., priority 2014, published 2017) come the findings set out here.

For this test, the system named is Symmetric di-Methyl Arginine in Z-138 cells. Nature of the test: Z-138 Methylation Assay (In Cell Western for symmetric di-methyl arginine). The format is cell-based. To be noted: Homo sapiens, 96 hours incubation, symmetric di-methyl arginine normalised to DNA content, read-out: ICW EC50. The source says:
Z-138 suspension cells were purchased from ATCC (American Type Culture Collection, Manassas, Va.). RPMI/Glutamax medium, penicillin-streptomycin, heat inactivated fetal bovine serum, and D-PBS were purchased from Life Technologies, Grand Island, N.Y., USA. Odyssey blocking buffer, 800CW goat anti-rabbit IgG (H+L) antibody, and Licor Odyssey infrared scanner were purchased from Licor Biosciences, Lincoln, Nebr., USA. Symmetric di-methyl arginine antibody was purchased from EMD Millipore, Billerica, Mass., USA. 16% Paraformaldehyde was purchased from Electron Microscopy Sciences, Hatfield, Pa., USA.
Z-138 suspension cells were maintained in growth medium (RPMI 1640 supplemented with 10% v/v heat inactivated fetal bovine serum and 100 units/mL penicillin-streptomycin) and cultured at 37° C. under 5% CO2.
Cell Treatment, In Cell Western (ICW) for detection of Symmetric di-Methyl Arginine and DNA content.
Z-138 cells were seeded in assay medium at a concentration of 50,000 cells per mL to a 384-well cell culture plate with 50 μL per well. Compound (100 nL) from 384 well source plates was added directly to 384 well cell plate. Plates were incubated at 37° C., 5% CO2 for 96 hours. After four days of incubation, 40 μL of cells from incubated plates were added to poly-D-lysine coated 384 well culture plates (BD Biosciences 356697). Plates were incubated at room temperature for 30 minutes then incubated at 37° C., 5% CO2 for 5 hours. After the incubation, 40 μL per well of 8% paraformaldehyde in PBS (16% paraformaldahyde was diluted to 8% in PBS) was added to each plate and incubated for 30 minutes. Plates were transferred to a Biotek 405 plate washer and washed 5 times with 100 μL per well of wash buffer (IX PBS with 0.1% Triton X-100 (v/v)). Next […] well of Odyssey blocking buffer were added to each plate and incubated 1 hour at room temperature. Blocking buffer was removed and 20 μL per well of primary antibody was added (symmetric di-methyl arginine diluted 1:100 in Odyssey buffer with 0.1% Tween 20 (v/v)) and plates were incubated overnight (16 hours) at 4° C. Plates were washed 5 times with 100 μL per well of wash buffer. Next 20 μL per well of secondary antibody was added (1:200 800CW goat anti-rabbit IgG (H+L) antibody, 1:1000 DRAQ5 (Biostatus limited) in Odyssey buffer with 0.1% Tween 20 (v/v)) and incubated for 1 hour at room temperature. The plates were washed 5 times with 100 μL per well wash buffer then 1 time with 100 μL per well of water. Plates were allowed to dry at room temperature then imaged on the Licor Odyssey machine which measures integrated intensity at 700 nm and 800 nm wavelengths. Both 700 and 800 channels were scanned.
First, the ratio for each well was determined by:
Each plate included fourteen control wells of DMSO only treatment (minimum inhibition) as well as fourteen control wells for maximum inhibition treated with 3 μM of a reference compound (Background wells). The average of the ratio values for each control type was calculated and used to determine the percent inhibition for each test well in the plate. Reference compound was serially diluted three-fold in DMSO for a total of nine test concentrations, beginning at 3 μM. Percent inhibition was determined and IC50 curves were generated using triplicate wells per concentration of compound.
Turning to `CC(=O)N1CCC(Nc2cc(C(=O)NC[C@H](O)CN3CCc4c(ncn4C)C3)ccn2)CC1` [Compound 3-22, (S)-2-((1-acetylpiperidin-4-yl)amino)-N-(2-hydroxy-3-(1-methyl-6,7-dihydro-1H-imidazo[4,5-c]pyridin-5(4H)-yl)propyl)isonicotinamide], the EC50 was > 1000 nM.

With `CC(=O)N1CC(Nc2cc(C(=O)NC[C@H](O)CN3CCc4ncccc4C3)ncn2)C1` [Compound 2-9, (S)-6-((1-acetylazetidin-3-yl)amino)-N-(3-(7,8-dihydro-1,6-naphthyridin-6(5H)-yl)-2-hydroxypropyl)pyrimidine-4-carboxamide], the half-maximal effective concentration (EC50) is 101 to 1000 nM.

Regarding `Cc1nc2c(o1)CCN(C[C@@H](O)CNC(=O)c1cc(NC3COC3)ncn1)C2` [Compound 4-1, (S)—N-(2-hydroxy-3-(2-methyl-6,7-dihydrooxazolo[4,5-c]pyridin-5(4H)-yl)propyl)-6-(oxetan-3-ylamino)pyrimidine-4-carboxamide], the EC50 was > 1000 nM.

Turning to `Nc1nc2c(s1)CCN(C[C@@H](O)CNC(=O)c1cc(NC3COC3)ncn1)C2` [Compound 1-20, (S)—N-(3-(2-amino-6,7-dihydrothiazolo[4,5-c]pyridin-5(4H)-yl)-2-hydroxypropyl)-6-(oxetan-3-ylamino)pyrimidine-4-carboxamide], the 50% effective concentration (EC50) was > 1000 nM.

Take `CC(=O)N1CC(Nc2cc(C(=O)NC[C@H](O)CN3CCc4c(ncn4C)C3)ncn2)C1` [Compound 3-45]: the half-maximal effective concentration (EC50) was > 1000 nM.

On to `CC(=O)N1CCC(Nc2cc(C(=O)NC[C@H](O)CN3CCc4scc(C)c4C3)ncn2)CC1` [Compound 1-13, (S)-6-((1-acetylpiperidin-4-yl)amino)-N-(2-hydroxy-3-(3-methyl-6,7-dihydrothieno[3,2-c]pyridin-5(4H)-yl)propyl)pyrimidine-4-carboxamide], for which the EC50 is < 100 nM.

`CC(=O)N1CCC(Nc2cc(C(=O)NC[C@H](O)CN3CCc4cnccc4C3)ncn2)CC1` [Compound 2-17, (S)-6-((1-acetylpiperidin-4-yl)amino)-N-(3-(3,4-dihydro-2,6-naphthyridin-2(1H)-yl)-2-hydroxypropyl)pyrimidine-4-carboxamide]: the 50% effective concentration (EC50) is > 1000 nM.

Take `CC(=O)N1CCC(Nc2cc(C(=O)NC[C@H](O)CN3CCc4ncccc4C3)ccn2)CC1` [Compound 2-20, (S)-2-((1-acetylpiperidin-4-yl)amino)-N-(3-(7,8-dihydro-1,6-naphthyridin-6(5H)-yl)-2-hydroxypropyl)isonicotinamide]: the EC50 was 101 to 1000 nM.

Regarding `CC(=O)N1CCC(Nc2cc(C(=O)NC[C@H](O)CN3CCc4cccnc4C3)ccn2)CC1` [Compound 2-21, (S)-2-((1-acetylpiperidin-4-yl)amino)-N-(3-(5,6-dihydro-1,7-naphthyridin-7(8H)-yl)-2-hydroxypropyl)isonicotinamide], the concentration for a half-maximal effect (EC50) lay in the range of 101 to 1000 nM.

As to `CC(=O)N1CC(Nc2cc(C(=O)NC[C@H](O)CN3CCc4[nH]nc(-c5ccccc5)c4C3)ncn2)C1` [Compound 3-11, (S)-6-((1-acetylazetidin-3-yl)amino)-N-(2-hydroxy-3-(3-phenyl-6,7-dihydro-1H-pyrazolo[4,3-c]pyridin-5(4H)-yl)propyl)pyrimidine-4-carboxamide], the concentration for a half-maximal effect (EC50) was > 1000 nM.

For the molecule `CC(=O)N1CC(Nc2cc(C(=O)NC[C@H](O)CN3CCc4cccnc4C3)ncn2)C1` [Compound 2-13], the EC50 is 101 to 1000 nM.

As for `CC(=O)N1CC(Nc2cc(C(=O)NC[C@H](O)CN3CCc4cnccc4C3)ncn2)C1` [Compound 2-16], the EC50 is > 1000 nM.

On to `CC(=O)N1CCC(Nc2cc(C(=O)NC[C@H](O)CN3CCc4cn[nH]c4C3)ncn2)CC1` [Compound 3-51], for which the EC50 was > 1000 nM.

For `CC(=O)N1CC(Nc2cc(C(=O)NC[C@H](O)CN3CCc4ncsc4C3)ncn2)C1` [Compound 1-17, (S)-6-((1-acetylazetidin-3-yl)amino)-N-(3-(6,7-dihydrothiazolo[5,4-c]pyridin-5(4H)-yl)-2-hydroxypropyl)pyrimidine-4-carboxamide], the 50% effective concentration (EC50) was > 1000 nM.

Consider `CC(=O)N1CCC(Nc2cc(C(=O)NC[C@H](O)CN3CCc4scc(C)c4C3)ccn2)CC1` [Compound 1-14, (S)-2-((1-acetylpiperidin-4-yl)amino)-N-(2-hydroxy-3-(3-methyl-6,7-dihydrothieno[3,2-c]pyridin-5(4H)-yl)propyl)isonicotinamide], for which the EC50 is < 100 nM.

On to `CC(=O)N1CCC(Nc2cc(C(=O)NC[C@H](O)CN3CCc4ncsc4C3)ncn2)CC1` [Compound 1-18, (S)-6-((1-acetylpiperidin-4-yl)amino)-N-(3-(6,7-dihydrothiazolo[5,4-c]pyridin-5(4H)-yl)-2-hydroxypropyl)pyrimidine-4-carboxamide], for which the concentration giving a half-maximal response (EC50) is > 1000 nM.

For `O=C(COc1cccc2cccnc12)NCC(O)CN1CCc2nc[nH]c2C1` (stereo not drawn) [Compound 3-10, N-(2-hydroxy-3-{3H,4H,5H,6H,7H-imidazo[4,5-c]pyridin-5-yl}propyl)-2-(quinolin-8-yloxy)acetamide], the EC50 is > 1000 nM.

`CC(=O)N1CCC(Nc2cc(C(=O)NC[C@H](O)CN3CCc4cccnc4C3)ncn2)CC1` [Compound 2-11, (S)-6-((1-acetylpiperidin-4-yl)amino)-N-(3-(5,6-dihydro-1,7-naphthyridin-7(8H)-yl)-2-hydroxypropyl)pyrimidine-4-carboxamide]: the EC50 was in the range of 101 to 1000 nM.

`CC(=O)N1CC(Nc2cc(C(=O)NC[C@H](O)CN3CCc4ccncc4C3)ncn2)C1` [Compound 2-22]: the EC50 was > 1000 nM.

Turning to `O=C(NC[C@H](O)CN1CCc2cnccc2C1)c1cc(NC2COC2)ncn1` [Compound 2-15], the concentration for a half-maximal effect (EC50) was > 1000 nM.

Consider `O=C(NC[C@H](O)CN1CCc2ncccc2C1)c1cc(NC2COC2)ncn1` [Compound 2-12, (S)—N-(3-(7,8-dihydro-1,6-naphthyridin-6(5H)-yl)-2-hydroxypropyl)-6-(oxetan-3-ylamino)pyrimidine-4-carboxamide], for which the EC50 is > 5000 nM.

`CC(=O)N1CCC(Nc2cc(C(=O)NC[C@H](O)CN3CCc4nc(C)[nH]c4C3)ccn2)CC1` [Compound 3-54]: the EC50 was > 1000 nM.

Turning to `CC(=O)N1CC(Nc2cc(C(=O)NC[C@H](O)CN3CCc4sccc4C3)ncn2)C1` [Compound 1-2, (S)-6-((1-acetylazetidin-3-yl)amino)-N-(3-(6,7-dihydrothieno[3,2-c]pyridin-5(4H)-yl)-2-hydroxypropyl)pyrimidine-4-carboxamide], the EC50 was < 100 nM.

For `CC(=O)N1CCC(Nc2cc(C(=O)NC[C@H](O)CN3CCc4sccc4C3)ncn2)CC1` [Compound 1-3, (S)-6-((1-acetylpiperidin-4-yl)amino)-N-(3-(6,7-dihydrothieno[3,2-c]pyridin-5(4H)-yl)-2-hydroxypropyl)pyrimidine-4-carboxamide], the EC50 was < 100 nM.

Consider `CC(=O)N1CCC(Nc2cc(C(=O)NC[C@H](O)CN3CCc4ncsc4C3)ccn2)CC1` [Compound 1-19, (S)-2-((1-acetylpiperidin-4-yl)amino)-N-(3-(6,7-dihydrothiazolo[5,4-c]pyridin-5(4H)-yl)-2-hydroxypropyl)isonicotinamide], for which the EC50 is > 1000 nM.

For the molecule `CC(=O)N1CCC(Nc2cc(C(=O)NC[C@H](O)CN3CCc4scnc4C3)ncn2)CC1` [Compound 1-32], the EC50 was > 1000 nM.

As for `CC(=O)N1CCC(Nc2cc(C(=O)NC[C@H](O)CN3CCc4ncccc4C3)ncn2)CC1` [Compound 2-14, (S)-6-((1-acetylpiperidin-4-yl)amino)-N-(3-(7,8-dihydro-1,6-naphthyridin-6(5H)-yl)-2-hydroxypropyl)pyrimidine-4-carboxamide], the concentration giving a half-maximal response (EC50) was in the range of 101 to 1000 nM.

On to `CC(=O)N1CCC(Nc2cc(C(=O)NC[C@H](O)CN3CCc4cnccc4C3)ccn2)CC1` [Compound 2-18], for which the concentration giving a half-maximal response (EC50) was 101 to 1000 nM.

Take `CC(=O)N1CCC(Nc2cc(C(=O)NC[C@H](O)CN3CCc4[nH]cnc4C3)ncn2)CC1` [Compound 3-34, (S)-6-((1-acetylpiperidin-4-yl)amino)-N-(3-(6,7-dihydro-1H-imidazo[4,5-c]pyridin-5(4H)-yl)-2-hydroxypropyl)pyrimidine-4-carboxamide]: the EC50 is > 1000 nM.

Regarding `O=C(NC[C@H](O)CN1CCc2ccncc2C1)c1cc(NC2COC2)ncn1` [Compound 2-24], the EC50 is > 1000 nM.
